Assay: Stability (integrity) testing of amorphous and polymorphic form under storage conditions, RP-HPLC
Format: physicochemical
Set-up: key to Impurity RRT 0.738 / Impurity RRT 0.949 / Impurity RRT 1.050 / Impurity RRT 1.550 / Impurity RRT 0.136 / Impurity RRT 0.720 / Impurity RRT 0.706 / Impurity RRT 1.18 / Impurity RRT 1.826: % of total UV absorption (HPLC peak area); Impurity RRT 1.104 / Impurity RRT 1.698: unit not given beside the values
Conditions: for Total: in %
Description: The integrity of the different forms of the (3R, 5R)-7-[2-(4-fluorophenyl)-5-isopropyl-3-phenyl-4-[(4-hydroxymethylphenylamino)carbonyl]-pyrrol-1-yl]-3,5-dihydroxy-heptanoic acid, hemi calcium salt, was tested under different atmospheric conditions to determine the stability of the amorphous and polymorphic form of the drug in various storage environments. Reversed Phase-HPLC (RP-HPLC) was used to separate (3R, 5R)-7-[2-(4-fluorophenyl)-5-isopropyl-3-phenyl-4-[(4-hydroxymethylphenylamino)carbonyl]-pyrrol-1-yl]-3,5-dihydroxy-heptanoic acid, hemi calcium salt, from smaller molecules representing breakdown products as well as oxidized drug. The relative amount of the drug was reported as a percent of total absorption by UV. The total peak area of all UV absorption impurities was used to define total impurity of the drug. Impurities are defined by their relative retention time (RRT) compared to native drug. Samples were injected onto a C18 column using standard temperature, gradient and run-time conditions.
The results of this integrity testing for the amorphous form of (3R, 5R)-7-[2-(4-fluorophenyl)-5-isopropyl-3-phenyl-4-[(4-hydroxymethylphenylamino)carbonyl]-pyrrol-1-yl]-3,5-dihydroxy-heptanoic acid, hemi calcium salt, is shown in Table 5.
Three separate batches of polymorphic Form I of (3R, 5R)-7-[2-(4-fluorophenyl)-5-isopropyl-3-phenyl-4-[(4-hydroxymethylphenylamino)carbonyl]-pyrrol-1-yl]-3,5-dihydroxy-heptanoic acid, hemi calcium salt, were prepared and tested under the same atmospheric conditions described for the amorphous form.

Impurity RRT 0.731 (5° C. 1 month): 0.030
Impurity RRT 0.832 (5° C. 1 month): 0.034
Impurity RRT 0.876 (5° C. 1 month): 0.150
Impurity RRT 0.952 (5° C. 1 month): 0.040
Impurity RRT 0.965 (5° C. 1 month): 0.532
Impurity RRT 0.974 (5° C. 1 month): 0.052
Impurity RRT 0.991 (5° C. 1 month): 0.022
Impurity RRT 1.024 (5° C. 1 month): 0.459
Impurity RRT 1.041 (5° C. 1 month): 0.585
Total (5° C. 1 month): 1.904
Impurity RRT 0.885 (5° C. 2 months): 0.177
Impurity RRT 0.952 (5° C. 2 months): 0.048
Impurity RRT 0.965 (5° C. 2 months): 0.501
Impurity RRT 0.974 (5° C. 2 months): 0.067
Impurity RRT 0.991 (5° C. 2 months): 0.029
Impurity RRT 1.024 (5° C. 2 months): 0.508
Impurity RRT 1.041 (5° C. 2 months): 0.604
Total (5° C. 2 months): 1.934
Impurity RRT 0.892 (5° C. 3 months): 0.161
Impurity RRT 0.965 (5° C. 3 months): 0.550
Impurity RRT 0.981 (5° C. 3 months): 0.058
Impurity RRT 1.024 (5° C. 3 months): 0.506
Impurity RRT 1.041 (5° C. 3 months): 0.635
Total (5° C. 3 months): 1.91
Impurity RRT 0.731 (5° C. 6 months): 0.037
Impurity RRT 0.832 (5° C. 6 months): 0.028
Impurity RRT 0.876 (5° C. 6 months): 0.014
Impurity RRT 0.892 (5° C. 6 months): 0.016
Impurity RRT 0.952 (5° C. 6 months): 0.024
Impurity RRT 0.965 (5° C. 6 months): 0.552
Impurity RRT 1.024 (5° C. 6 months): 0.582
Impurity RRT 1.041 (5° C. 6 months): 0.592
Impurity RRT 1.074 (5° C. 6 months): 0.028
Total (5° C. 6 months): 1.873
Impurity RRT 0.885 (25° C./60% RH 3 months): 0.145
Impurity RRT 0.892 (25° C./60% RH 3 months): 0.212
Impurity RRT 0.965 (25° C./60% RH 3 months): 0.542
Impurity RRT 0.981 (25° C./60% RH 3 months): 0.058
Impurity RRT 1.024 (25° C./60% RH 3 months): 0.518
Impurity RRT 1.041 (25° C./60% RH 3 months): 0.648
Total (25° C./60% RH 3 months): 2.123
Impurity RRT 0.731 (25° C./60% RH 6 months): 0.031
Impurity RRT 0.832 (25° C./60% RH 6 months): 0.029
Impurity RRT 0.876 (25° C./60% RH 6 months): 0.133
Impurity RRT 0.892 (25° C./60% RH 6 months): 0.124
Impurity RRT 0.952 (25° C./60% RH 6 months): 0.037
Impurity RRT 0.965 (25° C./60% RH 6 months): 0.546
Impurity RRT 1.024 (25° C./60% RH 6 months): 0.618
Impurity RRT 1.041 (25° C./60% RH 6 months): 0.593
Impurity RRT 1.074 (25° C./60% RH 6 months): 0.068
Impurity RRT 1.104 (25° C./60% RH 6 months): 0.037
Total (25° C./60% RH 6 months): 2.216
Impurity RRT 0.885 (30° C./55% RH 6 months): 0.187
Impurity RRT 0.892 (30° C./55% RH 6 months): 0.168
Impurity RRT 0.965 (30° C./55% RH 6 months): 0.699
Impurity RRT 1.024 (30° C./55% RH 6 months): 0.693
Impurity RRT 1.041 (30° C./55% RH 6 months): 0.777
Impurity RRT 1.074 (30° C./55% RH 6 months): 0.103
Impurity RRT 1.104 (30° C./55% RH 6 months): 0.032
Total (30° C./55% RH 6 months): 2.659
Impurity RRT 0.731 (30° C./65% RH 1 month): 0.038
Impurity RRT 0.832 (30° C./65% RH 1 month): 0.037
Impurity RRT 0.876 (30° C./65% RH 1 month): 0.145
Impurity RRT 0.892 (30° C./65% RH 1 month): 0.038
Impurity RRT 0.952 (30° C./65% RH 1 month): 0.042
Impurity RRT 0.965 (30° C./65% RH 1 month): 0.512
Impurity RRT 0.974 (30° C./65% RH 1 month): 0.054
Impurity RRT 0.991 (30° C./65% RH 1 month): 0.018
Impurity RRT 1.024 (30° C./65% RH 1 month): 0.464
Impurity RRT 1.041 (30° C./65% RH 1 month): 0.587
Impurity RRT 1.074 (30° C./65% RH 1 month): 0.021
Total (30° C./65% RH 1 month): 1.956
Impurity RRT 0.885 (30° C./65% RH 2 months): 0.154
Impurity RRT 0.892 (30° C./65% RH 2 months): 0.119
Impurity RRT 0.952 (30° C./65% RH 2 months): 0.050
Impurity RRT 0.965 (30° C./65% RH 2 months): 0.505
Impurity RRT 0.974 (30° C./65% RH 2 months): 0.042
Impurity RRT 0.991 (30° C./65% RH 2 months): 0.022
Impurity RRT 1.024 (30° C./65% RH 2 months): 0.524
Impurity RRT 1.041 (30° C./65% RH 2 months): 0.611
Total (30° C./65% RH 2 months): 2.027
Impurity RRT 0.832 (30° C./65% RH 3 months): 0.046
Impurity RRT 0.892 (30° C./65% RH 3 months): 0.184
Impurity RRT 0.965 (30° C./65% RH 3 months): 0.542
Impurity RRT 0.981 (30° C./65% RH 3 months): 0.057
Impurity RRT 1.024 (30° C./65% RH 3 months): 0.516
Impurity RRT 1.041 (30° C./65% RH 3 months): 0.638
Total (30° C./65% RH 3 months): 1.983
Impurity RRT 0.731 (40° C./75% RH 1 month): 0.039
Impurity RRT 0.832 (40° C./75% RH 1 month): 0.034
Impurity RRT 0.876 (40° C./75% RH 1 month): 0.125
Impurity RRT 0.892 (40° C./75% RH 1 month): 0.055
Impurity RRT 0.965 (40° C./75% RH 1 month): 0.526
Impurity RRT 0.974 (40° C./75% RH 1 month): 0.071
Impurity RRT 0.991 (40° C./75% RH 1 month): 0.024
Impurity RRT 1.024 (40° C./75% RH 1 month): 0.464
Impurity RRT 1.041 (40° C./75% RH 1 month): 0.565
Impurity RRT 1.074 (40° C./75% RH 1 month): 0.032
Total (40° C./75% RH 1 month): 1.955
Impurity RRT 0.738 (40° C./75% RH 2 months): 0.042
Impurity RRT 0.885 (40° C./75% RH 2 months): 0.159
Impurity RRT 0.892 (40° C./75% RH 2 months): 0.127
Impurity RRT 0.949 (40° C./75% RH 2 months): 0.063
Impurity RRT 0.965 (40° C./75% RH 2 months): 0.547
Impurity RRT 0.991 (40° C./75% RH 2 months): 0.027
Impurity RRT 1.024 (40° C./75% RH 2 months): 0.543
Impurity RRT 1.041 (40° C./75% RH 2 months): 0.622
Impurity RRT 1.074 (40° C./75% RH 2 months): 0.077
Total (40° C./75% RH 2 months): 2.207
Impurity RRT 0.892 (40° C./75% RH 3 months): 0.189
Impurity RRT 0.965 (40° C./75% RH 3 months): 0.548
Impurity RRT 0.981 (40° C./75% RH 3 months): 0.065
Impurity RRT 1.024 (40° C./75% RH 3 months): 0.515
Impurity RRT 1.041 (40° C./75% RH 3 months): 0.632
Impurity RRT 1.104 (40° C./75% RH 3 months): 0.074
Total (40° C./75% RH 3 months): 2.023
Impurity RRT 0.731 (40° C./75% RH 6 months): 0.031
Impurity RRT 0.832 (40° C./75% RH 6 months): 0.031
Impurity RRT 0.876 (40° C./75% RH 6 months): 0.152
Impurity RRT 0.892 (40° C./75% RH 6 months): 0.19
Impurity RRT 0.952 (40° C./75% RH 6 months): 0.022
Impurity RRT 0.965 (40° C./75% RH 6 months): 0.497
Impurity RRT 1.024 (40° C./75% RH 6 months): 0.460
Impurity RRT 1.041 (40° C./75% RH 6 months): 0.573
Impurity RRT 1.050 (40° C./75% RH 6 months): 0.094
Impurity RRT 1.074 (40° C./75% RH 6 months): 0.025
Impurity RRT 1.104 (40° C./75% RH 6 months): 0.037
Total (40° C./75% RH 6 months): 2.112
Impurity RRT 0.876 (Initial): 0.146
Impurity RRT 0.965 (Initial): 0.560
Impurity RRT 0.991 (Initial): 0.022
Impurity RRT 1.024 (Initial): 0.464
Impurity RRT 1.041 (Initial): 0.581
Total (Initial): 1.703
Structure (SMILES): CC(C)c1c(C(=O)Nc2ccc(CO)cc2)c(-c2ccccc2)c(-c2ccc(F)cc2)n1CC[C@@H](O)C[C@@H](O)CC(=O)[O-].CC(C)c1c(C(=O)Nc2ccc(CO)cc2)c(-c2ccccc2)c(-c2ccc(F)cc2)n1CC[C@@H](O)C[C@@H](O)CC(=O)[O-].[Ca+2] [PP00204, (3R, 5R)-7-[2-(4-fluorophenyl)-5-isopropyl-3-phenyl-4-[(4-hydroxymethylphenylamino)carbonyl]-pyrrol-1-yl]-3,5-dihydroxy-heptanoic acid, hemi calcium salt]
